Test system: nitric oxide release in rat tissue
Assay: Nitric oxide release in rat tissue exposed to hyperglycemia in vitro, with sepiapterin supplementation
Conditions: hyperglycemia 55 mM, 48 hr incubation, sepiapterin 100 μM, n=4 per group, FIG. 5
Protocol: FIG. 5. Effect of hyperglycemia (55 mM, 48 hr incubation) and supplementation of sepiapterin (SEP, 100 μM), on nitric oxide release in rat tissue. The bars represent mean f SEM. *p<0.05 non-glycemic (N.G, Control) vs. hyperglycemic (H.G); #p<0.05 N.G vs. SEP, t-test (n=4 in each group). […] Protein expression for DHFR was reduced in diabetic female rats (FIGS. 3A-3B). […] All the above findings correlated well with the impaired saliva secretion and water intake (FIGS. 1A-1B) and e/n NOS activity (FIGS. 3A-3B) as measured by dimerization in SM gland tissue. Therefore, dietary supplementation of sepiapterin improves e/n NOSα dimerization, nNOS activity, NO synthesis and saliva secretion.

With C[C@H](O)C(=O)C1=Nc2c(nc(N)[nH]c2=O)NC1 [sepiapterin] the “NO release in the tissue exposed to hyperglycemia” value was “improved NO release”.
